These results are taken from ChEMBL document CHEMBL1201862, “PubChem BioAssay data set” (2004).

SMILES strings stand for the structures.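 Briefly, cells in 96-well plates were exposed to five compound concentrations for 48 h, and endpoints were estimated by linear interpolation. GI50 = concentration required for 50% inhibition of growth.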 Calls of active or inactive are those of the source. No stated cut-off is given here; in the data, active = GI50 up to about 1.1 µM and inactive = higher.

Test systems include HOP-18; DLD-1; SNB-78; DMS-114; DMS-273; M19-MEL; RXF 631; XF498; KM-20L2.
Test in all cases: NCI tumour cell line growth inhibition, 48 h

As to `C=C(Br)C(C)(Cl)CCC(Br)C(C)(C)Br` (centres undefined), the GI50 is > 100 µM (inactive) in the test on HOP-18; 91.8 µM (inactive) in the test on DLD-1; > 100 µM (inactive) with SNB-78; 25.4 µM (inactive) in the test with DMS-114; 39.4 µM (inactive) with DMS-273; 34 µM (inactive) with M19-MEL.
Regarding `COc1ccc2c(-c3cc4ccccc4o3)cc(=O)oc2c1`, the GI50 is 48.6 µM (inactive) with HOP-18; 36.9 µM (inactive) in the test on RXF 631; > 100 µM (inactive) in the test with DLD-1; 35.2 µM (inactive) with SNB-78; 61.8 µM (inactive) with DMS-273; > 100 µM (inactive) with M19-MEL. Also, the GI50 in the test on XF498 was 21.3 µM (inactive); in the test with KM-20L2 it was > 100 µM (inactive).
On to `N#C/C(=C\c1ccc(O)c(O)c1)c1c(C#N)c(N)nn1-c1ccccc1`, for which the GI50 with HOP-18 is 1.04 µM (active); in the test with DLD-1 it was 18.5 µM (inactive); in the test with SNB-78, 14.6 µM (inactive); in the test on DMS-273, 6.92 µM (inactive); in the test on M19-MEL, 7.4 µM (inactive); with KM-20L2, 38.1 µM (inactive).
Regarding `CCOC(=N)/C(=C1\OC(=N)C(c2ccc(Cl)cc2)=C1O)c1ccc(Cl)cc1`, the GI50 was 19 µM (inactive) with HOP-18; 25.2 µM (inactive) with RXF 631; 15.2 µM (inactive) in the test with DLD-1; 25.6 µM (inactive) in the test with SNB-78; 17.3 µM (inactive) with DMS-114; 14.7 µM (inactive) with DMS-273. Besides, the GI50 with M19-MEL is 16.9 µM (inactive); with XF498, 11.4 µM (inactive); with KM-20L2, 18.5 µM (inactive).
In the case of `CC12O[C@H](c3ccccc3)[C@H](c3ccccc3)N1C(=O)C1(C(=O)OCc3ccccc3)CC12` (some centres undefined), the GI50 was > 100 µM (inactive) in the test with RXF 631; 88.1 µM (inactive) with DLD-1; 39.6 µM (inactive) in the test with DMS-114; 80 µM (inactive) with DMS-273; > 100 µM (inactive) in the test with M19-MEL; 78.9 µM (inactive) with XF498. Further, the GI50 with KM-20L2 is 25.1 µM (inactive).
For the compound `O=C(N/C(=C\c1ccc(/C=C(\NC(=O)c2ccccc2)c2nc3c(O)nc(S)nc3[nH]2)cc1)c1nc2c(O)nc(S)nc2[nH]1)c1ccccc1`, the GI50 was > 100 µM (inactive) with HOP-18; 62.4 µM (inactive) with RXF 631; 64.9 µM (inactive) in the test with DLD-1; > 100 µM (inactive) with SNB-78; 34.3 µM (inactive) with DMS-114; > 100 µM (inactive) in the test with DMS-273. Further, the GI50 in the test with XF498 and in the test with KM-20L2 was > 100 µM (inactive) throughout.
With `COc1cc(C(C)O)c[n+](CCC2CNc3ccccc32)c1` (centres undefined), the GI50 was > 100 µM (inactive) in the test on DLD-1; 91.4 µM (inactive) with DMS-114; > 100 µM (inactive) in the test on DMS-273; > 100 µM (inactive) with M19-MEL; > 100 µM (inactive) with XF498; 43 µM (inactive) in the test on KM-20L2.
As for `O/N=C1/CCC/C1=C\c1ccccc1`, the GI50 with HOP-18 was > 100 µM (inactive); in the test on DLD-1 it was > 100 µM (inactive); in the test on SNB-78 it was > 100 µM (inactive); in the test with DMS-273 it was > 100 µM (inactive); in the test on M19-MEL, > 10 µM (inactive); with XF498 it was 29.9 µM (inactive). In the test on KM-20L2, the GI50 was > 100 µM (inactive).
For the compound `Cc1ccc(S(=O)(=O)OCC23CCC(C2)C2CC23)cc1` (centres undefined), the GI50 in the test with HOP-18, in the test on DLD-1, with DMS-114, in the test on DMS-273, in the test on M19-MEL and in the test with KM-20L2 was > 100 µM (inactive) in each case.
As to `Cc1ccc(NC(=O)CCc2nc(N)nc(N)c2-c2ccccc2)cc1C`, the GI50 in the test with HOP-18, in the test on RXF 631, in the test on DLD-1, in the test on SNB-78, in the test on DMS-114 and in the test with DMS-273 was > 100 µM (inactive) throughout. For the same compound, the GI50 with M19-MEL, with XF498 and in the test on KM-20L2 was > 100 µM (inactive) each time.
For `CC(C)COC1Sc2ccccc2S1`, the GI50 is 16.5 µM (inactive) with HOP-18; 16.4 µM (inactive) in the test with DLD-1; 27.9 µM (inactive) in the test with SNB-78; 12.5 µM (inactive) in the test with DMS-114; 19.8 µM (inactive) with DMS-273; > 10 µM (inactive) with XF498. Besides, the GI50 in the test with KM-20L2 is 17.5 µM (inactive).
On to `COc1cc2nc(NCCCCCNC(=O)c3ccco3)nc(N)c2cc1OC`, for which the GI50 was > 100 µM (inactive) in the test with HOP-18; 26.1 µM (inactive) in the test with RXF 631; 28.2 µM (inactive) in the test on SNB-78; 19.9 µM (inactive) in the test with DMS-114; 49.9 µM (inactive) in the test with DMS-273; 23 µM (inactive) with M19-MEL. The GI50 in the test on KM-20L2 is 32.4 µM (inactive).
Take `O=C(C[n+]1ccccc1)N/N=C(/CCC(=O)N(Cc1ccccc1)Cc1ccccc1)CC(=O)c1ccccc1`: the GI50 in the test on HOP-18, in the test with RXF 631, in the test with DLD-1, with SNB-78, in the test with DMS-114 and in the test with DMS-273 was > 100 µM (inactive) throughout. The GI50 in the test with M19-MEL and in the test with KM-20L2 was > 100 µM (inactive) throughout.
For the compound `O=[N+]([O-])c1ccccc1/C=N/C12CC3CC(CC(C3)C1)C2`, the GI50 in the test on HOP-18 is > 100 µM (inactive); in the test with RXF 631, > 100 µM (inactive); with DLD-1 it was 36.4 µM (inactive); with SNB-78, 47.1 µM (inactive); in the test with DMS-273 it was 34.6 µM (inactive); in the test with M19-MEL, > 100 µM (inactive). For the same compound, the GI50 is > 100 µM (inactive) in the test on XF498 and 51.1 µM (inactive) with KM-20L2.
Regarding `CC(C)c1c2[nH]c3ccccc3c2c(C(C)C)c2[nH]c3ccccc3c12`, the GI50 with HOP-18 was > 100 µM (inactive); in the test with RXF 631 it was > 100 µM (inactive); with DLD-1, > 78.7 µM (inactive); in the test with SNB-78 it was > 100 µM (inactive); in the test on DMS-114, > 100 µM (inactive); in the test on DMS-273, 81.5 µM (inactive). Besides, the results for the GI50 with M19-MEL, with XF498 and in the test on KM-20L2 were > 100 µM (inactive), > 100 µM (inactive) and 17.6 µM (inactive), respectively.
For the compound `CC1(C)OC2CC3COC(=O)C3CC2O1` (centres undefined), the GI50 in the test on HOP-18, with RXF 631, with DLD-1, in the test with SNB-78, in the test with DMS-114 and in the test with DMS-273 was > 100 µM (inactive) each time. In addition, the GI50 in the test with M19-MEL and in the test on KM-20L2 was > 100 µM (inactive) each time.
Consider `Nc1ncnc2c1ncn2[C@]1(CO)C=C(CO)C(O)C1O` (some centres undefined), for which the GI50 in the test on HOP-18, with RXF 631, with DLD-1, with SNB-78, in the test with DMS-114 and with DMS-273 was > 100 µM (inactive) in each case. In addition, the GI50 in the test with XF498 and with KM-20L2 was > 100 µM (inactive) in each case.
Regarding `CC[C@@]1(O)C(=O)OCc2c1cc1n(c2=O)Cc2cc3c(N)cccc3nc2-1` [9-AMINOCAMPTOTHECIN], the GI50 with HOP-18 was 0.0277 µM (active); with RXF 631, 0.0375 µM (active); in the test with DLD-1, 0.566 µM (active); in the test with SNB-78, 0.574 µM (active); with DMS-114, < 0.01 µM (active); in the test with DMS-273, < 0.01 µM (active). The GI50 in the test with M19-MEL was 0.0198 µM (active); in the test on XF498, 0.143 µM (active); with KM-20L2 it was 0.0643 µM (active).
In the case of `Cc1cc(O)cc2oc(=O)c3c(O)cc(O)cc3c12` [ALTERNARIOL], the GI50 with HOP-18 is 26.8 µM (inactive); in the test on DLD-1 it was 30.7 µM (inactive); in the test on SNB-78 it was 34.5 µM (inactive); with DMS-114, 34.4 µM (inactive); in the test on DMS-273, 23 µM (inactive); with M19-MEL it was 58.6 µM (inactive). In addition, the figures for the GI50 in the test on XF498 and in the test with KM-20L2 were 27.1 µM (inactive) and 27.7 µM (inactive), respectively.
